As usually defined, the MIC is the lowest concentration found to suppress growth. Low values mean a more susceptible organism, high ones a less susceptible organism. Broadly, the MBC is the smallest concentration meeting the test's criterion for killing. Lower therefore signals greater bactericidal potency.

For one assay, the system named is E. coli ATCC25922. The assay can be described thus: MIC, microdilution in MH broth (initial screening). It is filed as cell-based, Escherichia coli. Particulars: 24 h, 37 °C, resazurin, triplicate. The method, then:
The minimum inhibitory concentrations (MIC) were determined following the Clinical and Laboratory Standards Institute (CLSI) recommendations. Antibacterial and antifungal activity tests were performed using the microdilution method. For initial screening, peptides were tested against C. albicans ATCC18804, E. coli ATCC25922, and S. aureus ATCC25923. Briefly, bacterial cells in MH broth (80 μL aliquots containing 1.5 × 10^7 CFU) were incubated with synthetic peptides (serial dilution from 512 to 1 μM) dissolved in Milli-Q water. After incubation for 24 h at 37 °C, the microtiter plates were analyzed visually by addition of resazurin. For the antifungal assays, the culture medium was RPMI 1640 buffered with L-glutamine (pH 7.2), 0.165 M morpholinepropanesulfonic acid (MOPS), and 2% glucose. Cell suspensions (final concentration of 1 × 10^3–2.5 × 10^3 CFU/mL) were inoculated on a microdilution plate previously prepared with serially diluted synthetic peptides (128–1 μM). The plates were incubated for 48 h at 37 °C. Each assay was performed in triplicates. Additionally, amphotericin B and fluconazole were used as the control drugs. MIC was defined as the lowest concentration of peptide at which no growth was detected.
Background: Dilution methods test growth across graded concentrations, often in twofold steps.

For another assay, the system named is S. aureus SA16. Format: cell-based, Staphylococcus aureus. The following applies: S. aureus SA16 (MRSA); for MBC: sub-culture on MH agar, 99.9% death. The method, then:
(§1) After confirming antibacterial activity, the peptides were tested against gram-positive and gram-negative multidrug-resistant bacteria, including strains of clinical origin. The peptides, p-BthTX-I, des-Lys^12/(p-BthTX-I)2, and Lys^13-(p-BthTX-I)2 were serially diluted (512–1 μM) in cation-adjusted BBL MH II broth (CAMHB; Becton, Dickson and Co., Sparks, MD, USA) as described by CLSI. Bacteria at 5.0 × 10^5 CFU/mL were added to the media and incubated for 24 h at 37 °C. […] Assays were performed in duplicates, and sterile broth was used as the negative control. To determine the minimal bactericidal concentration (MBC), 100 µL from each well of the MIC assay plates that inhibited bacterial growth were sub-cultured onto MH agar (MHA) plates. […] If the ratio of MBC/MIC was >4, the activity of the peptide was considered bacteriostatic, as described previously.

A further assay has as its system S. aureus SA33. It is filed as cell-based, Staphylococcus aureus. The following applies: for MBC: S. aureus SA33, sub-culture on MH agar, 99.9% death. The method, then: as §1
The next assay has as its system S. aureus SA90. It is filed as cell-based, Staphylococcus aureus. How it is done:
as §1

For another assay, the system named is K. pneumoniae ATCC700603. Format: cell-based, Klebsiella pneumoniae. How it is done: as §1
The next assay relates to E. coli ATCC35218. Format: cell-based, Escherichia coli. Particulars: for MIC: E. coli ATCC35218, CAMHB, 24 h, 37 °C, duplicate; for MBC: E. coli ATCC35218, sub-culture on MH agar, 99.9% death. The method, then:
as §1

In a further assay the test system is E. coli CA4. It is filed as cell-based, Escherichia coli. The following applies: for MIC: E. coli CA4 (commensal), CAMHB, 24 h, 37 °C, duplicate; for MBC: E. coli CA4, sub-culture on MH agar, 99.9% death. How it is done:
as §1

Molecules are shown by their SMILES. ≈ marks a conversion by molar mass, not a printed value. Bridge positions count the residues as written; N and C are the ends. Peptide text beside a SMILES is read from it. I, II: the chains in the order shown.

Turning to `CC(C)C[C@H](NC(=O)[C@H](Cc1c[nH]cn1)NC(=O)[C@H](Cc1ccc(O)cc1)NC(=O)[C@H](CCCNC(=N)N)NC(=O)[C@H](Cc1ccc(O)cc1)NC(=O)[C@H](CCCCN)NC(=O)[C@@H](N)CCCCN)C(=O)N[C@@H](CCCCN)C(=O)N1CCC[C@H]1C(=O)N[C@@H](Cc1ccccc1)C(=O)N[C@@H](CSSC[C@H](NC(=O)[C@H](Cc1ccccc1)NC(=O)[C@@H]1CCCN1C(=O)[C@H](CCCCN)NC(=O)[C@H](CC(C)C)NC(=O)[C@H](Cc1c[nH]cn1)NC(=O)[C@H](Cc1ccc(O)cc1)NC(=O)[C@H](CCCNC(=N)N)NC(=O)[C@H](Cc1ccc(O)cc1)NC(=O)[C@H](CCCCN)NC(=O)[C@@H](N)CCCCN)C(=O)N[C@@H](CCCCN)C(=O)N[C@@H](CCCCN)C(=O)O)C(=O)N[C@@H](CCCCN)C(=O)N[C@@H](CCCCN)C(=O)O` [(p-BthTX-I)2], the minimum inhibitory concentration (MIC) is 4 µM (≈ 13.9 µg/mL) in the assay with E. coli ATCC25922; 128 µM (≈ 445 µg/mL) against S. aureus SA90 (S. aureus SA90 (MRSA), CAMHB, 24 h, 37 °C); 64 µM (≈ 222 µg/mL) against K. pneumoniae ATCC700603 (K. pneumoniae ATCC700603 (SHV-18), CAMHB, 24 h, 37 °C); 512 µM (≈ 1780 µg/mL) in the assay on E. coli ATCC35218; 256 µM (≈ 890 µg/mL) against E. coli CA4. Further, the minimal bactericidal concentration (MBC) stood at 512 µM (≈ 1780 µg/mL) with S. aureus SA16; 512 µM (≈ 1780 µg/mL) with S. aureus SA33; 256 µM (≈ 890 µg/mL) in the assay on S. aureus SA90 (S. aureus SA90, sub-culture on MH agar, 99.9% death); 64 µM (≈ 222 µg/mL) against K. pneumoniae ATCC700603 (K. pneumoniae ATCC700603, sub-culture on MH agar, 99.9% death); 512 µM (≈ 1780 µg/mL) against E. coli ATCC35218; 512 µM (≈ 1780 µg/mL) in the assay on E. coli CA4.

For `CC(C)C[C@H](NC(=O)[C@H](Cc1c[nH]cn1)NC(=O)[C@H](Cc1ccc(O)cc1)NC(=O)[C@H](CCCNC(=N)N)NC(=O)[C@H](Cc1ccc(O)cc1)NC(=O)[C@H](CCCCN)NC(=O)[C@@H](N)CCCCN)C(=O)N[C@@H](CCCCN)C(=O)N1CCC[C@H]1C(=O)N[C@@H](Cc1ccccc1)C(=O)N[C@@H](CSSC[C@H](NC(=O)[C@H](Cc1ccccc1)NC(=O)[C@@H]1CCCN1C(=O)[C@H](CCCCN)NC(=O)[C@H](CC(C)C)NC(=O)[C@H](Cc1c[nH]cn1)NC(=O)[C@H](Cc1ccc(O)cc1)NC(=O)[C@H](CCCNC(=N)N)NC(=O)[C@H](Cc1ccc(O)cc1)NC(=O)[C@H](CCCCN)NC(=O)[C@@H](N)CCCCN)C(=O)O)C(=O)O` [des-Lys^12/Lys^13-(p-BthTX-I)2] (I: H-KKYRYHLKPFC-OH / II: H-KKYRYHLKPFC-OH; disulfide I:11-II:11), the minimal inhibitory concentration (MIC) was 16 µM (≈ 47.4 µg/mL) in the assay with E. coli ATCC25922; 128 µM (≈ 379 µg/mL) in the assay on S. aureus SA16 (CAMHB, 24 h, 37 °C); 128 µM (≈ 379 µg/mL) in the assay on S. aureus SA33 (S. aureus SA33 (MRSA, tigecycline resistant), CAMHB, 24 h, 37 °C); 64 µM (≈ 190 µg/mL) in the assay with E. coli ATCC35218; 64 µM (≈ 190 µg/mL) in the assay on E. coli CA4. Also, the MBC is given as 128 µM (≈ 379 µg/mL) against S. aureus SA16, 256 µM (≈ 759 µg/mL) against S. aureus SA33, 256 µM (≈ 759 µg/mL) in the assay on E. coli ATCC35218 and 128 µM (≈ 379 µg/mL) against E. coli CA4.

The record behind these values is paper PMC6150245 (Molecules : A Journal of Synthetic Chemistry and Natural …, 2017).
